# Measurements from publication PMC7587356, “High-Throughput Screening for Inhibitors of the SARS-CoV-2 Protease Using a FRET-Biosensor” (Molecules, 2020).
# Counter-ions that a name gives are not always drawn. Like-named read-outs stand apart in the source and are kept apart here.
# Biological target: SARS-CoV-2 3CLpro (Severe acute respiratory syndrome coronavirus 2, UniProt P0DTD1)
# Test: biochemical
# Format: biochemical
# Parameters: Replicate_1 / Replicate_2 / mean / mean (LOPAC_screen_w_protease): unit not given here
# Details: for inhibition at 5 µM: 4 h
# [1] = sheet LOPAC_screen_w_protease, primary screen with protease, compound at 5 µM, mean of two replicates
# [2] = sheet LOPAC_screen_w_protease, primary screen with protease, compound at 5 µM, replicate 1
# [3] = sheet LOPAC_screen_w_protease, primary screen with protease, compound at 5 µM, replicate 2
# [4] = sheet LOPAC_screen_w_protease, primary screen of LOPAC1280 at 5 µM with protease, mean of the two replicates
# [5] = sheet LOPAC_screen_w_protease, primary screen of LOPAC1280 at 5 µM with protease, replicate 1
# [6] = sheet LOPAC_screen_w_protease, primary screen of LOPAC1280 at 5 µM with protease, replicate 2
# [7] = sheet LOPAC_screen_w_protease, primary screen with protease, 5 µM, mean of two replicates, read-out: mean
# [8] = sheet LOPAC_screen_w_protease, primary screen with protease, 5 µM, replicate 1, read-out: Replicate_1
# [9] = sheet LOPAC_screen_w_protease, primary screen with protease, 5 µM, replicate 2, read-out: Replicate_2
# [10] = sheet LOPAC_screen_w_protease, primary screen with protease, mean of two replicates
# [11] = sheet LOPAC_screen_w_protease, primary screen with protease, replicate 1
# [12] = sheet LOPAC_screen_w_protease, primary screen with protease, replicate 2
# [13] = sheet LOPAC_screen_w_protease, LOPAC1280 primary screen with protease, 5 µM compound, mean of the two replicates, read-out: mean
# [14] = sheet LOPAC_screen_w_protease, LOPAC1280 primary screen with protease, 5 µM compound, replicate 1, read-out: Replicate_1
# [15] = sheet LOPAC_screen_w_protease, LOPAC1280 primary screen with protease, 5 µM compound, replicate 2, read-out: Replicate_2
# [16] = LOPAC1280 primary screen with protease, 5 µM compound, mean of two replicates
# [17] = LOPAC1280 primary screen with protease, 5 µM compound, replicate 1
# [18] = LOPAC1280 primary screen with protease, 5 µM compound, replicate 2
# [19] = sheet LOPAC_screen_w_protease, primary screen with protease, 5 µM, mean of two replicates
# [20] = sheet LOPAC_screen_w_protease, primary screen with protease, 5 µM, replicate 1
# [21] = sheet LOPAC_screen_w_protease, primary screen with protease, 5 µM, replicate 2
# [22] = sheet LOPAC_screen_w_protease, primary screen with protease, mean of two replicates, read-out: mean
# [23] = sheet LOPAC_screen_w_protease, primary screen with protease, replicate 1, read-out: Replicate_1
# [24] = sheet LOPAC_screen_w_protease, primary screen with protease, replicate 2, read-out: Replicate_2
# [25] = LOPAC1280 primary screen with protease, 5 µM compound, replicate 1, read-out: Replicate_1 (LOPAC_screen_w_protease)
# [26] = LOPAC1280 primary screen with protease, 5 µM compound, replicate 2, read-out: Replicate_2 (LOPAC_screen_w_protease)
# [27] = LOPAC1280 primary screen with protease, 5 µM compound, mean of the two replicates
# [28] = sheet LOPAC_screen_w_protease, LOPAC1280 at 5 µM, mean of two replicates
# [29] = sheet LOPAC_screen_w_protease, LOPAC1280 at 5 µM, replicate 1
# [30] = sheet LOPAC_screen_w_protease, LOPAC1280 at 5 µM, replicate 2
# [31] = sheet LOPAC_screen_w_protease, LOPAC1280 primary screen at 5 µM, with protease, mean of the two replicates
# [32] = sheet LOPAC_screen_w_protease, LOPAC1280 primary screen at 5 µM, with protease, replicate 1
# [33] = sheet LOPAC_screen_w_protease, LOPAC1280 primary screen at 5 µM, with protease, replicate 2
smiles,measurement,setting,value
CCCCCCCCCCCCCCCC(=O)OC(CC(=O)O)C[N+](C)(C)C.[Cl-] (racemic) [Palmitoyl-DL-Carnitine chloride],mean,[1],2.684
same,Replicate_1,[2],2.378
same,Replicate_2,[3],2.9894
C[N+](C)(C)CC#CCOC(=O)Nc1cccc(Cl)c1.[Cl-] [McN-A-343],mean,[4],3.792
same,Replicate_1,[5],2.713
same,Replicate_2,[6],4.871
O=C1CCC(c2ccc(-n3ccnc3)cc2)=NN1 [Imazodan],inhibition at 5 µM,[7],-0.683%
same,inhibition at 5 µM,[8],0.89%
same,inhibition at 5 µM,[9],-2.26%
"O=S1(=O)N(CCN2CC=C(c3c[nH]c4cc(F)ccc34)CC2)c2cccc3c2N1CCC3 [LY-367,265]",mean,[10],2.318
same,Replicate_1,[11],0.8121
same,Replicate_2,[12],3.823
CCCN(CCC)CCc1c[nH]c2ccc(C(N)=O)cc12.O=C(O)/C=C\C(=O)O,mean,[4],3.512
same,Replicate_1,[5],3.371
same,Replicate_2,[6],3.653
C=C/C(C)=C/[C@@]1(C)SC(=O)C(C)=C1O [Thiolactomycin],inhibition at 5 µM,[13],4.16%
same,inhibition at 5 µM,[14],2.88%
same,inhibition at 5 µM,[15],5.43%
CNCC(O)c1ccc(O)cc1 (racemic) [(±)-Synephrine],mean (LOPAC_screen_w_protease),[16],1.431
same,Replicate_1 (LOPAC_screen_w_protease),[17],1.098
same,Replicate_2 (LOPAC_screen_w_protease),[18],1.765
"CCCn1c(=O)c2c(ncn2C)n(CCC)c1=O [1,3-Dipropyl-7-methylxanthine]",mean,[1],3.018
same,Replicate_1,[2],3.463
same,Replicate_2,[3],2.572
CCCN(CCC)C(=O)C(CCC(=O)O)NC(=O)c1ccccc1 (stereo not drawn) [Proglumide],inhibition at 5 µM,[13],4.27%
same,inhibition at 5 µM,[14],4.11%
same,inhibition at 5 µM,[15],4.43%
CCCC(C(=O)OCCN(CC)CC)(c1ccccc1)c1ccccc1.Cl [SKF-525A hydrochloride],mean,[4],3.89
same,Replicate_1,[5],3.162
same,Replicate_2,[6],4.618
Nc1nc(Nc2ccccc2)nc2c1ncn2[C@@H]1O[C@H](CO)[C@@H](O)[C@H]1O [2-Phenylaminoadenosine],mean,[19],-0.1756
same,Replicate_1,[20],-0.3497
same,Replicate_2,[21],-0.001377
CCCCNc1ccc(C(=O)OCCN(C)C)cc1 [Tetracaine hydrochloride],inhibition at 5 µM,[7],-0.191%
same,inhibition at 5 µM,[8],0.225%
same,inhibition at 5 µM,[9],-0.607%
CCCCCCCCCCCCC/C=C/[C@@H](O)[C@@H](N)CO [Sphingosine],inhibition at 5 µM,[7],-0.887%
same,inhibition at 5 µM,[8],-1.81%
same,inhibition at 5 µM,[9],0.0317%
N#CC(=Cc1ccc(O)c(O)c1)C(=O)NCCc1ccccc1 [Tyrphostin AG 698],mean,[1],2.9723
same,Replicate_1,[2],3.137
same,Replicate_2,[3],2.808
CC(C)(Oc1ccc(C2CC2(Cl)Cl)cc1)C(=O)O (stereo not drawn) [Ciprofibrate],inhibition at 5 µM,[22],2.4%
same,inhibition at 5 µM,[23],2.2%
same,inhibition at 5 µM,[24],2.6%
"CN1[C@@H]2CC[C@H]1C[C@@H](OC(=O)c1cc(Cl)cc(Cl)c1)C2 [3-Tropanyl-3,5-dichlorobenzoate]",inhibition at 5 µM,[25],2.08%
same,inhibition at 5 µM,[26],0.785%
same,mean (LOPAC_screen_w_protease),[16],1.4299
NC(=S)c1ccc[n+]([C@@H]2O[C@@H](COP(=O)([O-])OP(=O)(O)OC[C@H]3O[C@@H](n4cnc5c(N)ncnc54)C(OP(=O)([O-])O)[C@H]3O)C(O)C2O)c1.[Na+] (stereo partly drawn) [Thio-NADP sodium],mean (LOPAC_screen_w_protease),[16],1.323
same,Replicate_1 (LOPAC_screen_w_protease),[17],2.439
same,Replicate_2 (LOPAC_screen_w_protease),[18],0.2062
COc1cc(-c2ccc(=O)[nH]n2)ccc1OC(F)F [Zardaverine],inhibition at 5 µM,[25],2.27%
same,inhibition at 5 µM,[26],1.55%
same,mean (LOPAC_screen_w_protease),[27],1.91
Cl.O[Si](CCCN1CCCCC1)(c1ccc(F)cc1)C1CCCCC1 (stereo not drawn),mean,[28],1.239
same,Replicate_1,[29],2.5476
same,Replicate_2,[30],-0.06894
N[C@H]1CON=C1O [L-Cycloserine],inhibition at 5 µM,"sheet LOPAC_screen_w_protease, primary screen with protease, compound at 5 µM, mean of two replicates, read-out: mean",3.14%
same,inhibition at 5 µM,"sheet LOPAC_screen_w_protease, primary screen with protease, compound at 5 µM, replicate 1, read-out: Replicate_1",0.423%
same,inhibition at 5 µM,"sheet LOPAC_screen_w_protease, primary screen with protease, compound at 5 µM, replicate 2, read-out: Replicate_2",5.86%
OC[C@H]1O[C@@H](n2cnc3c(NCCc4ccccc4)ncnc32)[C@H](O)[C@@H]1O [N6-2-Phenylethyladenosine],mean,[31],0.6761
same,Replicate_1,[32],1.884
same,Replicate_2,[33],-0.5317
CN1CCCC1c1cccnc1.Cc1ccc(C(=O)OC(C(=O)O)C(OC(=O)c2ccc(C)cc2)C(=O)O)cc1 (stereo not drawn) [(+)-Nicotine (+)-di-p-toluoyl tartrate],Replicate_1 (LOPAC_screen_w_protease),,1.288
same,Replicate_2 (LOPAC_screen_w_protease),,2.109
same,mean (LOPAC_screen_w_protease),,1.698
Cc1nc2n(c(=O)c1CCN1CCC(c3noc4cc(F)ccc34)CC1)CCCC2 [Risperidone],inhibition at 5 µM,"sheet LOPAC_screen_w_protease, LOPAC1280 at 5 µM, mean of two replicates, read-out: mean",0.962%
same,inhibition at 5 µM,"sheet LOPAC_screen_w_protease, LOPAC1280 at 5 µM, replicate 1, read-out: Replicate_1",1.3%
same,inhibition at 5 µM,"sheet LOPAC_screen_w_protease, LOPAC1280 at 5 µM, replicate 2, read-out: Replicate_2",0.627%
Nc1ncnc2c1nc(Sc1ccc(Cl)cc1)n2C1OC2COP(=O)(O)OC2C1O (stereo in doubt) [8-(4-Chlorophenylthio)-cAMP sodium],mean,[31],0.5451
same,Replicate_1,[32],0.8706
same,Replicate_2,[33],0.2195
CCCCCCCCCCCCCCCCCC(=O)OC(CC(=O)O)C[N+](C)(C)C.[Cl-] (racemic) [DL-Stearoylcarnitine chloride],mean (LOPAC_screen_w_protease),[27],1.7681
same,Replicate_1 (LOPAC_screen_w_protease),[17],3.299
same,Replicate_2 (LOPAC_screen_w_protease),[18],0.2369
Cn1cc(C2=C(c3ccc(Cl)cc3Cl)C(=O)NC2=O)c2ccccc21 [SB 216763],inhibition at 5 µM,"sheet LOPAC_screen_w_protease, primary screen at 5 µM, mean of two replicates, read-out: mean (LOPAC screen with protease)",6.45%
same,inhibition at 5 µM,"sheet LOPAC_screen_w_protease, primary screen at 5 µM, replicate 1, read-out: Replicate_1 (LOPAC screen with protease)",5.91%
same,inhibition at 5 µM,"sheet LOPAC_screen_w_protease, primary screen at 5 µM, replicate 2, read-out: Replicate_2 (LOPAC screen with protease)",6.98%
Cc1ccc(N(CC2=NCCN2)c2cccc(O)c2)cc1 [Phentolamine mesylate],inhibition at 5 µM,[7],-0.0499%
same,inhibition at 5 µM,[8],-0.162%
same,inhibition at 5 µM,[9],0.062%
Cc1c(C)c2c(c(C)c1O)CCC(C)(CN1CCN(c3cc(N4CCCC4)nc(N4CCCC4)n3)CC1)O2.Cl.Cl (stereo not drawn) [U-83836 dihydrochloride],mean,[19],0.07046
same,Replicate_1,[20],-0.1864
same,Replicate_2,[21],0.3273
C=CCN1C[C@H](C)N([C@H](c2ccc(C(=O)N(CC)CC)cc2)c2cccc(OC)c2)C[C@H]1C [SNC80],Replicate_1,,-0.408
same,Replicate_2,,1.648
same,mean,,0.6198
CO/N=C(\C(=O)N[C@@H]1C(=O)N2C(C(=O)O)=C(COC(C)=O)CS[C@H]12)c1csc(N)n1 [Cefotaxime sodium],inhibition at 5 µM,[22],2.42%
same,inhibition at 5 µM,[23],1.54%
same,inhibition at 5 µM,[24],3.3%
"O=C(O)/C(=C/c1c(C(=O)O)[nH]c2cc(Cl)cc(Cl)c12)c1ccccc1 [MDL 105,519]",Replicate_1,,2.708
same,Replicate_2,,5.657
same,mean,,4.183
NCC(CP(=O)(O)O)c1ccc(Cl)cc1 (stereo not drawn) [Phaclofen],mean,[28],1.154
same,Replicate_1,[29],-0.2982
same,Replicate_2,[30],2.606
CC(=O)N[C@@H](CS)C(=O)O [N-Acetyl-L-Cysteine],inhibition at 5 µM,read-out: Replicate_1,0.481%
same,inhibition at 5 µM,read-out: Replicate_2,0.723%
same,inhibition at 5 µM,read-out: mean,0.602%
CCCC(=O)NCCc1c2n(c3ccc(OC)cc13)CCCc1ccccc1-2 [K 185],mean,[10],2.196
same,Replicate_1,[11],2.886
same,Replicate_2,[12],1.507
COC(=O)[C@H](NC(=O)c1cc(-c2ccccc2)nc2ccccc12)c1ccccc1 [SB 218795],mean,[31],0.7338
same,Replicate_1,[32],2.781
same,Replicate_2,[33],-1.313
CCCCC[C@H](CC(=O)NO)C(=O)N[C@H](C(=O)N1CCC[C@H]1CO)C(C)C [Actinonin],inhibition at 5 µM,[25],1.42%
same,inhibition at 5 µM,[26],1.48%
same,mean (LOPAC_screen_w_protease),[16],1.4498
